Reference: patent US20250382332A1, “NOVEL ALPHA-FACTOR BASED PEPTIDES WITH ANTIFUNGAL ACTIVITY” (INVAIO SCIENCES, INC., priority 2024, published 2025)
Peptide text beside a SMILES is read from it.

System: Botrytis cinerea (B05.10)
Assay: Resazurin antifungal assay of 180 alpha-factor peptide variants towards Botrytis (Example 2)
Format: cell-based
Conditions: % inhibition of fungal growth, Botrytis conidia, resazurin; for Inhibition at 10 μM: peptide 10 μM; for Inhibition at 20 μM: peptide 20 μM; for Inhibition at 50 μM: peptide 50 μM; for Inhibition at 100 μM: peptide 100 μM
How it was run: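 Resazurin viability read-out (570/620 nm fluorescence) after a 24 h, 20° C incubation of B05.10 conidia, 5000 per well, with peptide at final 10-100 μM. Growth inhibition (%) was derived by subtracting conidia-only fluorescence; four replicates per treatment.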

Row | SMILES | Inhibition at 10 μM | Inhibition at 20 μM | Inhibition at 50 μM | Inhibition at 100 μM
1 | CSCC[C@H](NC(=O)[C@@H]1CCCN1C(=O)[C@H](CCC(N)=O)NC(=O)CNC(=O)[C@@H]1CCCN1C(=O)[C@H](CCCCN)NC(=O)[C@H](CC(C)C)NC(=O)[C@H](CCCNC(=N)N)NC(=O)[C@H](CC(C)C)NC(=O)[C@H](CC(C)C)NC(=O)[C@H](Cc1c[nH]cn1)NC(=O)[C@@H](N)CCCCN)C(=O)N[C@@H](Cc1ccc(O)cc1)C(=O)O [compound 88] (H-KHLLRLKPGQPMY-OH; N-terminus and C-terminus assumed) | <90% | <90% | 99.75% | 100%
2 | CC[C@H](C)[C@H](NC(=O)[C@H](CCCCN)NC(=O)[C@H](Cc1ccccc1)NC(=O)[C@H](CCC(=O)O)NC(=O)[C@H](CC(C)C)NC(=O)[C@H](CO)NC(=O)[C@H](Cc1c[nH]cn1)NC(=O)[C@@H](N)Cc1c[nH]c2ccccc12)C(=O)NCC(=O)N[C@@H](CCC(N)=O)C(=O)NCC(=O)N[C@@H](CCSC)C(=O)N[C@@H](Cc1ccc(O)cc1)C(=O)O [compound 89] (H-WHSLEFKIGQGMY-OH; N-terminus and C-terminus assumed) | <90% | <90% | 99.55% | 100%
3 | CC[C@H](C)[C@H](NC(=O)[C@H](CCC(N)=O)NC(=O)[C@H](CC(C)C)NC(=O)[C@H](Cc1ccccc1)NC(=O)[C@H](Cc1c[nH]cn1)NC(=O)[C@@H](N)Cc1c[nH]c2ccccc12)C(=O)N[C@@H](CCCCN)C(=O)N1CCC[C@H]1C(=O)NCC(=O)N[C@@H](CCC(N)=O)C(=O)NCC(=O)N[C@@H](CCSC)C(=O)N[C@@H](Cc1ccc(O)cc1)C(=O)O [compound 90] (H-WHFLQIKPGQGMY-OH; N-terminus and C-terminus assumed) | <90% | <90% | 99.27% | 100%
4 | CSCC[C@H](NC(=O)[C@@H]1CCCN1C(=O)[C@H](CCC(N)=O)NC(=O)CNC(=O)[C@H](CC(N)=O)NC(=O)[C@H](CCCCN)NC(=O)[C@H](CC(C)C)NC(=O)[C@H](CCCCN)NC(=O)[C@H](CC(C)C)NC(=O)[C@H](Cc1c[nH]c2ccccc12)NC(=O)[C@H](CCC(N)=O)NC(=O)[C@@H](N)CCCCN)C(=O)N[C@@H](Cc1ccc(O)cc1)C(=O)O [compound 91] (H-KQWLKLKNGQPMY-OH; N-terminus and C-terminus assumed) | <90% | <90% | 98.66% | 100%
5 | CSCC[C@H](NC(=O)[C@@H]1CCCN1C(=O)[C@H](CCC(N)=O)NC(=O)CNC(=O)[C@@H]1CCCN1C(=O)[C@H](CCCCN)NC(=O)[C@H](Cc1ccccc1)NC(=O)[C@H](CCCNC(=N)N)NC(=O)[C@H](CC(C)C)NC(=O)[C@@H](NC(=O)[C@H](Cc1c[nH]cn1)NC(=O)[C@@H](N)Cc1c[nH]c2ccccc12)[C@@H](C)O)C(=O)N[C@@H](Cc1ccc(O)cc1)C(=O)O [compound 92] (H-WHTLRFKPGQPMY-OH; N-terminus and C-terminus assumed) | <90% | <90% | 98.44% | 98.95%
6 | CSCC[C@H](NC(=O)[C@@H]1CCCN1C(=O)[C@H](CCC(N)=O)NC(=O)CNC(=O)[C@H](CCCNC(=N)N)NC(=O)[C@H](CCCCN)NC(=O)[C@H](CC(C)C)NC(=O)[C@H](CCC(N)=O)NC(=O)[C@H](CC(C)C)NC(=O)[C@@H](NC(=O)[C@H](Cc1c[nH]cn1)NC(=O)[C@@H](N)CCCCN)[C@@H](C)O)C(=O)N[C@@H](Cc1ccc(O)cc1)C(=O)O [compound 93] (H-KHTLQLKRGQPMY-OH; N-terminus and C-terminus assumed) | <90% | <90% | 97.77% | 100%
7 | CSCC[C@H](NC(=O)[C@@H]1CCCN1C(=O)[C@H](CCC(N)=O)NC(=O)CNC(=O)[C@@H]1CCCN1C(=O)[C@H](CCCCN)NC(=O)[C@H](Cc1ccccc1)NC(=O)[C@H](CO)NC(=O)[C@H](CC(C)C)NC(=O)[C@H](Cc1ccc(O)cc1)NC(=O)[C@H](Cc1c[nH]cn1)NC(=O)[C@@H](N)CCCCN)C(=O)N[C@@H](Cc1ccc(O)cc1)C(=O)O [compound 94] (H-KHYLSFKPGQPMY-OH; N-terminus and C-terminus assumed) | <90% | <90% | 97.32% | 100%
8 | CSCC[C@H](NC(=O)[C@@H]1CCCN1C(=O)[C@H](CCC(N)=O)NC(=O)CNC(=O)[C@@H]1CCCN1C(=O)[C@H](CCCCN)NC(=O)[C@H](Cc1ccccc1)NC(=O)[C@@H](NC(=O)[C@H](CC(C)C)NC(=O)[C@H](CC(C)C)NC(=O)[C@H](Cc1c[nH]cn1)NC(=O)[C@@H](N)CCCCN)[C@@H](C)O)C(=O)N[C@@H](Cc1ccc(O)cc1)C(=O)O [compound 95] (H-KHLLTFKPGQPMY-OH; N-terminus and C-terminus assumed) | <90% | <90% | 97.12% | 99.99%
9 | CSCC[C@H](NC(=O)[C@@H]1CCCN1C(=O)[C@H](CCC(N)=O)NC(=O)CNC(=O)[C@@H]1CCCN1C(=O)[C@H](CCCCN)NC(=O)[C@H](CC(C)C)NC(=O)[C@@H](NC(=O)[C@H](CC(C)C)NC(=O)[C@H](Cc1ccccc1)NC(=O)[C@H](Cc1c[nH]cn1)NC(=O)[C@@H](N)CCCCN)[C@@H](C)O)C(=O)N[C@@H](Cc1ccc(O)cc1)C(=O)O [compound 96] (H-KHFLTLKPGQPMY-OH; N-terminus and C-terminus assumed) | <90% | <90% | 95.86% | 99.87%
10 | CSCC[C@H](NC(=O)[C@@H]1CCCN1C(=O)[C@H](C)NC(=O)CNC(=O)[C@@H]1CCCN1C(=O)[C@H](CCCNC(=N)N)NC(=O)[C@H](Cc1ccccc1)NC(=O)[C@H](CCC(N)=O)NC(=O)[C@@H](NC(=O)[C@H](Cc1c[nH]c2ccccc12)NC(=O)[C@H](Cc1c[nH]cn1)NC(=O)[C@@H](N)Cc1c[nH]c2ccccc12)C(C)C)C(=O)N[C@@H](Cc1ccc(O)cc1)C(=O)O [compound 97] (H-WHWVQFRPGAPMY-OH; N-terminus and C-terminus assumed) | <90% | <90% | 95.75% | 100%
11 | CSCC[C@H](NC(=O)[C@@H]1CCCN1C(=O)[C@H](CCC(N)=O)NC(=O)CNC(=O)[C@H](CC(N)=O)NC(=O)[C@H](CCCCN)NC(=O)[C@H](CC(C)C)NC(=O)[C@H](CO)NC(=O)CNC(=O)[C@H](Cc1c[nH]c2ccccc12)NC(=O)[C@H](CCCCN)NC(=O)[C@@H](N)Cc1c[nH]c2ccccc12)C(=O)N[C@@H](Cc1ccc(O)cc1)C(=O)O [compound 98] (H-WKWGSLKNGQPMY-OH; N-terminus and C-terminus assumed) | <90% | <90% | 95.59% | 100%
12 | CC[C@H](C)[C@H](NC(=O)[C@H](CCCCN)NC(=O)[C@H](CC(C)C)NC(=O)[C@H](Cc1c[nH]c2ccccc12)NC(=O)[C@H](Cc1c[nH]cn1)NC(=O)[C@@H](N)Cc1c[nH]c2ccccc12)C(=O)N[C@@H](Cc1c[nH]c2ccccc12)C(=O)N1CCC[C@H]1C(=O)NCC(=O)N[C@@H](CCC(N)=O)C(=O)N1CCC[C@H]1C(=O)N[C@@H](CCSC)C(=O)N[C@@H](Cc1ccc(O)cc1)C(=O)O [compound 99] (H-WHWLKIWPGQPMY-OH; N-terminus and C-terminus assumed) | <90% | <90% | 94.66% | 100%
13 | CSCC[C@H](NC(=O)[C@@H]1CCCN1C(=O)[C@H](CCC(N)=O)NC(=O)CNC(=O)[C@@H]1CCCN1C(=O)[C@H](CCCCN)NC(=O)[C@H](Cc1ccccc1)NC(=O)[C@H](CC(N)=O)NC(=O)[C@H](CC(C)C)NC(=O)[C@H](Cc1ccc(O)cc1)NC(=O)[C@H](CCCCN)NC(=O)[C@@H](N)Cc1c[nH]c2ccccc12)C(=O)N[C@@H](Cc1ccc(O)cc1)C(=O)O [compound 100] (H-WKYLNFKPGQPMY-OH; N-terminus and C-terminus assumed) | <90% | <90% | 93.45% | 100%
14 | CSCC[C@H](NC(=O)[C@@H]1CCCN1C(=O)[C@H](CCC(N)=O)NC(=O)CNC(=O)[C@@H]1CCCN1C(=O)[C@H](CCCCN)NC(=O)[C@H](Cc1ccccc1)NC(=O)[C@H](CCCNC(=N)N)NC(=O)[C@H](CC(C)C)NC(=O)[C@@H](NC(=O)[C@H](Cc1c[nH]cn1)NC(=O)[C@@H](N)Cc1c[nH]c2ccccc12)C(C)C)C(=O)N[C@@H](Cc1ccc(O)cc1)C(=O)O [compound 101] (H-WHVLRFKPGQPMY-OH; N-terminus and C-terminus assumed) | <90% | <90% | 90.50% | 100%
15 | CSCC[C@H](NC(=O)[C@@H]1CCCN1C(=O)[C@H](CCC(N)=O)NC(=O)CNC(=O)[C@@H]1CCCN1C(=O)[C@H](CCCCN)NC(=O)[C@H](CC(C)C)NC(=O)[C@@H](NC(=O)[C@H](CC(C)C)NC(=O)[C@H](Cc1ccc(O)cc1)NC(=O)[C@H](Cc1c[nH]cn1)NC(=O)[C@@H](N)CCCCN)[C@@H](C)O)C(=O)N[C@@H](Cc1ccc(O)cc1)C(=O)O [compound 102] (H-KHYLTLKPGQPMY-OH; N-terminus and C-terminus assumed) | <90% | <90% | <90% | 98.51%
